# Read-outs that look alike come from different tables or passages of the source.
# Key:
# [1] = test system: MDA-MB-231 and MDA-MB-468 cells; assay: Cell viability with ROS scavenger MitoTEMPO; assay type: cell-based, human; conditions: MitoTEMPO up to 5 μM
# Description: Cytotoxicity: For the MTS assay, TNBC and normal cells were seeded into 96-well plates 24 h before the test and cultured in a humidified atmosphere of 5% CO2 and 95% air at 37° C. Cells were then incubated with CDN or control agents with the concentrations indicated in FIG. 2 in complete medium or base medium without FBS supplement. At 24 h after incubation, cells were washed with PBS three times and changed to fresh medium. The viability of the cells after treatment was measured using the MTS assay (CellTiter 96, Promega, cat. no. G3580). The viability was presented as the percentage of control (n=3 per condition for viability). For the trypan blue exclusion test, TNBC cells were seeded into six-well plates 24 h before the test and cultured in a humidified atmosphere of 5% CO2 and 95% air at 37° C. Cells were then incubated with CDN or control agents in complete medium. […] The viability of the cells was measured with Countess II (Life Technology). […]
# Cellular ATP measurement: ATP levels after CDN or control agent treatment were determined by Adenosine 5-triphosphate Bioluminescent Somatic Cell Assay Kit (Sigma-Aldrich, FLASC). […] The luminescence signals were measured by a Turner Biosystems 20/20n luminometer. The ATP concentration of each group was determined based on the ATP standard assay (n=3 per condition ATP production measurement for each cell line).
# MDA-MB-231luc cells = assay: In vitro copper depletion (CCL-1 luminescence, CDM fluorescence); assay type: cell-based, human; conditions: CDN (CDM 1 μM) with excess EDTA, 24 h
# Description: In vitro copper depletion: The copper level after CDN or control agent treatment was measured by CCL-1 luminescence imaging or ratiometric fluorescence microscopic imaging of fCDN. […] SPN, 50 μg ml-1) was added and incubation was continued for 24 h. […] Cells were immediately imaged by IVIS Spectrum (PerkinElmer) for 45 min. The integration images of luminescent radiance were presented. […] Images were processed as green/red ratios profiled by ImageJ and presented in pseudo-colors.
# [2] = test system: MDA-MB-231 and MDA-MB-468 cells; assay: OCR and ECAR measurement (Seahorse); assay type: cell-based, human; conditions: after 1 h of incubation, both cell lines, vs nontreated control
# Description: OCR and ECAR measurement. OCR and ECAR were measured by a Seahorse Bioscience instrument (XF96, Agilent). Briefly, on the day following MDA-MB-231 or MDA-MB-468 cell seeding, cells were incubated with CDN or control agents for 24 h (chelator concentration, 1 μM). On the day of measurement, cells were washed three times with D-PBS, changed into fresh medium without phenol red and bicarbonate (Seahorse base medium, cat. no. 103336-100) and equilibrated for 30 min in a 37° C. incubator lacking CO2. Oxygen concentration and extracellular acidification in media were measured at basal conditions and after sequential addition of oligomycin (1 μM, introduced after 28 min), FCCP (1 μM, introduced after 54 min) and rotenone/antimycin A (0.5 μM, introduced after 80 min) (n=8 per condition for OCR and ECAR for each cell line). […] Cells were then changed into Seahorse base medium and equilibrated for 30 min in a 37° C. incubator lacking CO2. Oxygen concentration and extracellular acidification in media were measured at basal conditions and after sequential addition of oligomycin (1 μM, introduced after 28 min), FCCP (1 μM, introduced after 54 min) and rotenone/antimycin A (0.5 μM, introduced after 80 min) (n=6 per condition for OCR and ECAR for each cell line).
# [3] = test system: MDA-MB-231 and MDA-MB-468 cells; assay: Western blot of cleaved caspase 3 (apoptosis); assay type: cell-based, human; conditions: 24 h incubation; CDM 1 μM, ATN224 5 μM, inhibitors 1 μM
# Description: Then cells were trypsinized, and cell lysates were prepared with RIPA buffer (Thermo, cat. no. 89900). The protein concentrations were quantified by Pierce BCA assay (Thermo Scientific, 23250). Cleaved caspase 3 antibody was purchased from Cell Signaling Technologies (Asp175, no. 9661). SOD1 antibody was from Santa Cruz Biotechnologies (sc-101523).
# [4] = test system: MDA-MB-231 orthotopic tumors; assay: Long-term survival study; assay type: in vivo, nude mice; conditions: i.v. weekly, seven doses, chelator 1.35 mg kg^−1; ATN224 oral gavage 0.7 mg kg^−1 d^−1
# Text: The SPN group received an i.v. injection of the same amount of SPN as in the CDN group weekly for seven doses in total. […] The treatment plan was initiated when the average tumor size reached 50 mm^3 and the endpoint of the survival study was primary tumor volume over 500 mm^3 and/or other signs identified by the veterinarian. The tumor volumes were continuously monitored over the treatment plan.
# MDA-MB-231 cells = assay: Cytotoxicity MTS assay, MDA-MB-231; assay type: cell-based, human; conditions: MDA-MB-231, 24 h, in the presence of serum, read-out: half-maximum inhibitory concentration (IC50)
# Description: (§1) Cytotoxicity: For the MTS assay, TNBC and normal cells were seeded into 96-well plates 24 h before the test and cultured in a humidified atmosphere of 5% CO2 and 95% air at 37° C. Cells were then incubated with CDN or control agents with the concentrations indicated in FIG. 2 in complete medium or base medium without FBS supplement. At 24 h after incubation, cells were washed with PBS three times and changed to fresh medium. The viability of the cells after treatment was measured using the MTS assay (CellTiter 96, Promega, cat. no. G3580). The viability was presented as the percentage of control (n=3 per condition for viability). For the trypan blue exclusion test, TNBC cells were seeded into six-well plates 24 h before the test and cultured in a humidified atmosphere of 5% CO2 and 95% air at 37° C. Cells were then incubated with CDN or control agents in complete medium. At 24 h after incubation, cells were washed with PBS three times and collected with a scraper. The cell suspension was then mixed with 0.4% trypan blue dye (1:1; Thermo Fisher Scientific, cat. no. 15250061) and incubated for less than 3 min at room temperature. The viability of the cells was measured with Countess II (Life Technology). The viability was presented as the percentage of control (n=3 per condition for viability).
# MDA-MB-468 cells = assay: Cytotoxicity MTS assay, MDA-MB-468; assay type: cell-based, human; conditions: MDA-MB-468, 24 h, in the presence of serum
# Description: as §1
# [5] = test system: MDA-MB-231luc orthotopic breast cancer; assay: Copper level in tumor after treatment (CCL-1/d-luciferin imaging); assay type: in vivo, mice; conditions: i.v. 1.35 mg kg^−1 every 3 d, day 25, compared with the control group
# Description: For the treatment group, mice were intravenously injected with CDN or control agents every 3 d, with five doses in total. Tumor volume was continuously monitored over the treatment plan. At day 25 after initial treatment, mice were subjected to d-luciferin bioluminescence imaging (150 mg kg^−1) and CCL-1 luminescence imaging (6 mg kg^−1).
structure (smiles),measurement,setting,value
CC1(C)CC(NC(=O)C[P+](c2ccccc2)(c2ccccc2)c2ccccc2)CC(C)(C)N1[O] [MitoTEMPO],rescue of cells from the CDN treatment effect,"[1]; CDM 1 μM, 24 h",did not rescue the cells
same,effect on cell viability,[1]; medium with or without FBS,will not affect the cell viability
"O=C(O)CN(CCN(CC(=O)O)CC(=O)O)CC(=O)O [EDTA, ethylenediaminetetraacetic acid]",CCL-1 luminescence (labile copper),MDA-MB-231luc cells,78.6±11.7 % of the CDN group
same,CDM fluorescence,MDA-MB-231luc cells,123.7±4.1 % of the CDN group
Cc1nc(-c2nc(-c3ccc(OC(F)(F)F)cc3)no2)nn1Cc1cccc(N2CCC(S(C)(=O)=O)CC2)c1 [IACS-010759],oxygen consumption (OCR),[2],almost completely inhibited the oxygen consumption
same,apoptosis (cleaved caspase 3),[3],barely induced apoptosis
C[N+](C)(C)CCO.C[N+](C)(C)CCO.[SH-].[SH-].[S]=[Mo]=[S] [ATN224],apoptosis (cleaved caspase 3),[3],but not with ATN224 treatment
same,median survival,[4],32 days
"[SH-].[SH-].[S]=[Mo]=[S] [TM, tetrathiomolybdate]",IC50,MDA-MB-231 cells,> 100 µM
same,IC50,MDA-MB-468 cells,~46.3 µM
"c1ccc(CN(Cc2ccccn2)Cc2ccccn2)nc1 [TPA, tris[(2-pyridyl)-methyl]amine]",IC50,MDA-MB-231 cells; Homo sapiens,9.25 ± 2.19 µM
same,IC50,MDA-MB-468 cells; Homo sapiens,5.34 ± 1.12 µM
same,copper in the tumor region (CCL-1 to d-luciferin total flux ratio),[5],successfully depleted the copper in the tumor region
same,median survival,[4],35 days
Cc1cc(-c2nc(-c3ccc(OC(F)(F)F)cc3)no2)nn1Cc1ccnc(N2CCN(C3CC3)CC2)c1 [BAY 87-2243],oxygen consumption (OCR),[2],almost completely inhibited the oxygen consumption
same,apoptosis (cleaved caspase 3),[3],barely induced apoptosis

# Source: patent US20210220482A1, “MITOCHONDRIAL COPPER DEPLETION REPROGRAMS THE METABOLISM OF TRIPLE NEGATIVE BREAST CANCER” (The Board of Trustees of the Leland Stanford Junior …, priority 2019, published 2021)
